What was measured:
bedstraw = assay: Test B pre/postemergence bedstraw; assay type: in vivo, Galium aparine; conditions: for Bedstraw plant response rating: Rate 62 g/ha
Procedure, shortened: (§1)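 Test chemicals in a non-phytotoxic solvent mixture with surfactant were sprayed preemergence onto planted seeds and postemergence onto plants 2 to 18 cm tall (1- to 4-leaf stage). After twelve to sixteen days in a greenhouse, injury was visually rated against untreated controls from 0 (no effect) to 10 (complete control).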

blackgrass = assay: Test B pre/postemergence blackgrass; assay type: in vivo, Alopecurus myosuroides
Procedure, shortened: as §1

surinam grass = assay: Test B pre/postemergence surinam grass; assay type: in vivo, Brachiaria decumbens
Procedure, shortened: as §1

cocklebur = assay: Test B pre/postemergence cocklebur; assay type: in vivo, Xanthium strumarium
Procedure, shortened: as §1

corn = assay: Test B pre/postemergence corn; assay type: in vivo, Zea mays
Procedure, shortened: as §1

crabgrass = assay: Test B pre/postemergence crabgrass; assay type: in vivo, Digitaria sanguinalis
Procedure, shortened: as §1

giant foxtail = assay: Test B pre/postemergence giant foxtail; assay type: in vivo, Setaria faberii
Procedure, shortened: as §1

morningglory = assay: Test B pre/postemergence morningglory; assay type: in vivo, Ipomoea hederacea
Procedure, shortened: as §1

pigweed = assay: Test B pre/postemergence pigweed; assay type: in vivo, Amaranthus retroflexus
Procedure, shortened: as §1

[1] = Postemergence, Rate 125 g/ha, scale 0 to 10, 0 is no effect, 10 is complete control
[2] = Preemergence, Rate 62 g/ha, scale of 0 to 10 where 0 is no effect and 10 is complete control
[3] = Preemergence, Rate 250 g/ha, scale of 0 to 10 where 0 is no effect and 10 is complete control
[4] = Preemergence, Rate 500 g/ha, scale of 0 to 10 where 0 is no effect and 10 is complete control
[5] = Rate 62 g/ha, Postemergence, scale 0 to 10 (0 no effect, 10 complete control)
[6] = Rate 250 g/ha, Postemergence, scale of 0 to 10 where 0 is no effect and 10 is complete control
[7] = Rate 500 g/ha, Postemergence, scale 0 to 10, 0 no effect, 10 complete control

## CC(C)N(C(=O)n1oc(=O)n(-c2ccc3ccccc3c2)c1=O)c1ccc(F)cc1 [Compound 329]
bedstraw; [1]
  Plant response rating, Bedstraw: 0
bedstraw; Preemergence, scale of 0 to 10 where 0 is no effect and 10 is complete control
  Bedstraw plant response rating: 0
bedstraw; Preemergence, Rate 125 g/ha
  Bedstraw plant response rating (0 to 10 scale): 0
bedstraw; Postemergence, scale 0 to 10 (0 no effect, 10 complete control)
  Bedstraw plant response rating: 0
blackgrass; [1]
  Plant response rating, Blackgrass: 0
blackgrass; [2]
  Blackgrass plant response rating: 0
blackgrass; Preemergence, Rate 125 g/ha
  Blackgrass plant response rating (0 to 10 scale): 0
blackgrass; [3]
  Blackgrass plant response rating: 0
blackgrass; [4]
  Blackgrass plant response rating: 0
blackgrass; [5]
  Blackgrass plant response rating: 0
blackgrass; [6]
  Plant response rating, Blackgrass: 0
blackgrass; [7]
  Plant response rating, Blackgrass: 0
Surinam grass; [1]
  Plant response rating, B. signalgrass: 0
Surinam grass; [2]
  B. signalgrass plant response rating: 0
Surinam grass; Preemergence, Rate 125 g/ha
  B. signalgrass plant response rating (0 to 10 scale, 0 is no effect, 10 is complete control): 0
Surinam grass; [3]
  B. signalgrass plant response rating: 0
Surinam grass; [4]
  B. signalgrass plant response rating: 0
Surinam grass; [5]
  B. signalgrass plant response rating: 0
Surinam grass; [6]
  Plant response rating, B. signalgrass: 0
Surinam grass; [7]
  Plant response rating, B. signalgrass: 0
cocklebur; [1]
  Plant response rating, Cocklebur: 0
cocklebur; [2]
  Cocklebur plant response rating: 0
cocklebur; Preemergence, Rate 125 g/ha
  Cocklebur plant response rating (0 to 10 scale): 0
cocklebur; [3]
  Cocklebur plant response rating: 0
cocklebur; [4]
  Cocklebur plant response rating: 0
cocklebur; [5]
  Cocklebur plant response rating: 0
cocklebur; [7]
  Plant response rating, Cocklebur: 4
corn; [1]
  Plant response rating, Corn: 0
corn; [2]
  Corn plant response rating: 0
corn; Preemergence, Rate 125 g/ha
  Corn plant response rating (0 to 10 scale): 0
corn; [3]
  Corn plant response rating: 0
corn; [4]
  Corn plant response rating: 0
corn; [5]
  Corn plant response rating: 0
corn; [7]
  Plant response rating, Corn: 0
crabgrass; [1]
  Plant response rating, Crabgrass: 0
crabgrass; [2]
  Crabgrass plant response rating: 0
crabgrass; Preemergence, Rate 125 g/ha
  Crabgrass plant response rating (0 to 10 scale): 0
crabgrass; [3]
  Crabgrass plant response rating: 0
crabgrass; [4]
  Crabgrass plant response rating: 3
crabgrass; [5]
  Crabgrass plant response rating: 0
crabgrass; [7]
  Plant response rating, Crabgrass: 0
Giant foxtail; [1]
  Plant response rating, Giant foxtail: 0
Giant foxtail; [2]
  Giant foxtail plant response rating: 0
Giant foxtail; Preemergence, Rate 125 g/ha
  Giant foxtail plant response rating (0 to 10 scale): 0
Giant foxtail; [3]
  Giant foxtail plant response rating: 0
Giant foxtail; [4]
  Giant foxtail plant response rating: 3
Giant foxtail; [5]
  Giant foxtail plant response rating: 0
Giant foxtail; [7]
  Plant response rating, Giant foxtail: 0
morningglory; [1]
  Plant response rating, Morningglory: 0
morningglory; [2]
  Morningglory plant response rating: 0
morningglory; Preemergence, Rate 125 g/ha
  Morningglory plant response rating (0 to 10 scale): 0
morningglory; [3]
  Morningglory plant response rating: 0
morningglory; [4]
  Morningglory plant response rating: 0
morningglory; [5]
  Morningglory plant response rating: 0
morningglory; [7]
  Plant response rating, Morningglory: 0
pigweed; [1]
  Plant response rating, Redroot pigweed: 0
pigweed; [2]
  Redroot pigweed plant response rating: 0
pigweed; Preemergence, Rate 125 g/ha
  Redroot pigweed plant response rating (0 to 10 scale): 0
pigweed; [3]
  Redroot pigweed plant response rating: 0
pigweed; [4]
  Redroot pigweed plant response rating: 0
pigweed; [5]
  Redroot pigweed plant response rating: 0
